Measurements from patent US20170281508A1, “Peptides and Their Use in the Treatment of Skin” (AVON PRODUCTS, INC., priority 2014, published 2017).
Peptide text beside a SMILES is read from it.

System: Human dermal fibroblast cells
Test: Pro-collagen I production in human dermal fibroblast cells (HTRF human pro-collagen I kit)
Format: cell-based
Conditions: peptide concentration 0.001% in DMEM media without FBS, 48 h treatment, percent change relative to vehicle control
Method: Human dermal fibroblast cells were grown in a 96 well plate in DMEM media (available from Corning, N.Y.) supplemented with 10% Fetal Bovine Serum (FBS) and L-glutamine (0.07×10^5 cells/plate). After reaching about 75% confluence, cells were transferred into DMEM media without FBS and incubated for 4-6 hours. Next, cells were treated with peptide of Formula I at 0.00001%, 0.0001%, 0.001% final concentration in DMEM media without FBS for 48 h. After treatment the media were collected, and cell viability was measured using MTT. The amount of secreted collagen was tested in the media using HTRF human pro-collagen I kit (Cisbio Inc, Bedford, Mass.).
Results are summarized in Table 1 below as percent change of pro-collagen I production relative to vehicle control: […]

CCC(C)C(NC(=O)C(N)CCC(N)=O)C(=O)NC(CC(C)C)C(=O)NC(CO)C(=O)NC(CCCCN)C(=O)NC(CC(C)C)C(=O)NC(CCCNC(=N)N)C(=O)NC(CC(C)C)C(=O)O (stereo not drawn) [QILSKLRL (SEQ ID NO: 1), Gln-Ile-Leu-Ser-Lys-Leu-Arg-Leu] (H-QILSKLRL-OH; configuration not given here)
Increase in Pro-Collagen I Production: +10-30% | Increase in Pro-Collagen I Production (listed as peptide of Formula I): 10-30%
